Four compounds from US12018059B2, “Human amylin analog polypeptides and methods of use” (Intarcia Therapeutics, Inc., priority 2018, dated 2024) can be followed below.

Series [1] in a line: in vivo. The note with it: rat, iv, 0.033 mg/kg. More on the design: species or system Sprague-Dawley rats. The method in brief: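 Peptide plasma levels measured by UPLC-MS/MS (C18, product-ion monitoring) after protein precipitation or WCX SPE, calibrated in K2EDTA/protease-inhibitor rat plasma. Dosing in non-fasted male Sprague-Dawley rats (n=3): 0.033 mg/kg over 1 h by IV or SC infusion, or 0.3 mg/kg SC bolus; sampling up to 48 h.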

Series [2] addresses T1, human calcitonin receptor (hCTR) (Homo sapiens, UniProt P30988).
T1 sequence (P30988 25-474): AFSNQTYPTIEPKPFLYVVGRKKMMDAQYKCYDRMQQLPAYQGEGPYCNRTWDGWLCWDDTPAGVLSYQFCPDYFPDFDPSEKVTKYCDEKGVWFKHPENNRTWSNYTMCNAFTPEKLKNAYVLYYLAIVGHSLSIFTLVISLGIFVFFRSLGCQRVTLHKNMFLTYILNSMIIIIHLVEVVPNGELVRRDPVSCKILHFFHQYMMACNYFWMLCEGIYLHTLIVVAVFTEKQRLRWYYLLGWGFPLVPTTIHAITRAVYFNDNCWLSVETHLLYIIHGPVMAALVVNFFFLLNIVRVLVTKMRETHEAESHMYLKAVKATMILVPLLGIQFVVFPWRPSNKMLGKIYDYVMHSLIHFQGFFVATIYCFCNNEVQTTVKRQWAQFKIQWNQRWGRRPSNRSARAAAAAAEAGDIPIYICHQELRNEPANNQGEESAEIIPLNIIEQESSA
The series is described as follows: cAMP accumulation functional assay in HEK293-CNG cells expressing hCTR. It is filed as cell-based. To be noted: presence versus absence of HSA (FIG. 2D). The protocol: In the presence of the non-specific cAMP/cGMP phosphodiesterase inhibitor 3-isobutyl-1-methylxanthine (IBMX), accumulating cAMP can be measured in vitro using common detection methods. Thus, it is possible to estimate an in vitro potency (pEC50) for peptides activating each of these receptors using fit dose-response curves for cAMP accumulation.
Cells were carried in growth media for no more than 10 passages prior to testing.
Peptides were serially diluted in the same buffer as above for each given assay condition. Two assay control solutions consisting of 50 mcM forskolin (cAMP system maximum) or assay buffer only (cAMP system minimum) were also prepared in the appropriate stimulation buffers. Five microliters of each peptide-concentration, or assay control was added to triplicate wells and incubated for thirty minutes at room temperature. During this incubation step a 4× europium labelled cAMP tracer solution and a 4× Ulight®-anti-cAMP solution (consisting of an anti-cAMP monoclonal antibody labelled with Ulight™ dye) was prepared according to the manufacturer's protocol (PerkinElmer LANCE Ultra cAMP kit). Following this incubation, 5 mcL europium labelled cAMP and 5 mcL Ulight anti-cAMP antibody was added to wells. The plate was covered with an adhesive cover to prevent evaporation and incubated for 60 minutes at room temperature in the dark. Plates were read on an Envision fluorescent plate reader (PerkinElmer).
Test values were first normalized to the forskolin induced cAMP system maximum and system minimum averaged values in Excel using the formula: (test value−system minavg)/(system maxavg−system minavg)*100. Normalized test values represent a baseline corrected percentage of the system maximum cAMP response induced by forskolin. Normalized data was analyzed from triplicate tests and used to estimate the EC50 for each peptide on each receptor. Data was fit in GraphPad Prism software (v7.04) using a 4-parameter logistic curve model: Y=Bottom+(Top−Bottom)/(1+10^((Log EC50−X))). The Hill slope was constrained to 1.0. EC50 values were converted to pEC50 values using the formula: pEC50=−Log (EC50).
For orientation: Changes in cAMP serve as a functional read-out for many G protein-coupled receptors.

Starred links: 1 amine or outer side, 2 acyl side, 3 side chain; linkers in the order of their positions; H or OH if unused. Positions of bridges follow the written chain, without caps; N, C: chain ends. Non-standard residues stand in square brackets, D forms with d. Residues, ends and D or L forms follow the SMILES beside them. Groups on a side chain read outwards from the residue. *: point of attachment. Docosanoyl = CCCCCCCCCCCCCCCCCCCCCC(=O)*; γGlu = O=C(O)[C@H](CCC(=O)[*:2])N[*:1]; Palmitoyl = CCCCCCCCCCCCCCCC(=O)*

`CCCCCCCCCCCCCCCC(=O)N[C@@H](CCC(=O)N[C@@H](CCC(=O)NCCCC[C@H](NC(=O)[C@H](CCC(=O)O)NC(=O)[C@H](CC(N)=O)NC(=O)[C@H](C)NC(=O)[C@H](CC(C)C)NC(=O)[C@H](CCCNC(=N)N)NC(=O)[C@H](CCC(N)=O)NC(=O)[C@@H](NC(=O)[C@H](C)NC(=O)[C@@H]1CSSC[C@H](NC(=O)[C@@H](N)CO)C(=O)N[C@@H](CC(N)=O)C(=O)N[C@@H]([C@@H](C)O)C(=O)N[C@@H](CO)C(=O)N[C@@H]([C@@H](C)O)C(=O)N1)[C@@H](C)O)C(=O)N[C@@H](Cc1c[nH]cn1)C(=O)N[C@@H](CCCCN)C(=O)N[C@@H](CO)C(=O)N[C@@H](CO)C(=O)N[C@@H](CC(N)=O)C(=O)N[C@@H](CC(N)=O)C(=O)N[C@@H](Cc1ccccc1)C(=O)NCC(=O)N1CCC[C@H]1C(=O)N[C@H](C(=O)N[C@@H](CC(C)C)C(=O)N1CCC[C@H]1C(=O)N1CCC[C@H]1C(=O)N[C@H](C(=O)N[C@@H](CCCCN)C(=O)N[C@H](C(=O)NCC(=O)N[C@@H](CO)C(=O)N[C@@H](CCC(=O)O)C(=O)N[C@H](C(=O)N[C@@H](Cc1ccc(O)cc1)C(N)=O)[C@@H](C)O)C(C)C)[C@@H](C)O)[C@@H](C)CC)C(=O)O)C(=O)O` [Compound A123] (H-SCNTSTCATQRLANEK([γGlu-γGlu-Palmitoyl])HKSSNNFGPILPPTKVGSETY-NH2; disulfide 2-7): in series [1], the Vd came out at 0.146 L/kg, the clearance is 0.58 mL/min/kg and the half-life is 3.2 h.

For `CCCCCCCCCCCCCCCCCCCCCC(=O)N[C@@H](CCC(=O)N[C@@H](CCC(=O)NCCCC[C@@H](NC(=O)[C@H](CCC(=O)O)NC(=O)[C@H](CC(N)=O)NC(=O)[C@H](C)NC(=O)[C@H](CC(C)C)NC(=O)[C@H](CCCNC(=N)N)NC(=O)[C@H](CCC(N)=O)NC(=O)[C@@H](NC(=O)[C@H](C)NC(=O)[C@@H]1CSSC[C@H](NC(=O)[C@@H](N)CO)C(=O)N[C@@H](CC(N)=O)C(=O)N[C@@H]([C@@H](C)O)C(=O)N[C@@H](CO)C(=O)N[C@@H]([C@@H](C)O)C(=O)N1)[C@@H](C)O)C(=O)N[C@@H](Cc1c[nH]cn1)C(=O)N[C@@H](CCCCN)C(=O)N[C@@H](CO)C(=O)N[C@@H](CO)C(=O)N[C@@H](CC(N)=O)C(=O)N[C@@H](CC(N)=O)C(=O)N[C@@H](Cc1ccccc1)C(=O)NCC(=O)N1CCC[C@H]1C(=O)N[C@H](C(=O)N[C@@H](CC(C)C)C(=O)N1CCC[C@H]1C(=O)N1CCC[C@H]1C(=O)N[C@H](C(=O)N[C@@H](CCCCN)C(=O)N[C@H](C(=O)NCC(=O)N[C@@H](CO)C(=O)N[C@@H](CCC(=O)O)C(=O)N[C@H](C(=O)N[C@@H](Cc1ccc(O)cc1)C(N)=O)[C@@H](C)O)C(C)C)[C@@H](C)O)[C@@H](C)CC)C(=O)O)C(=O)O` [Compound A124] (H-SCNTSTCATQRLANE[dK]([γGlu-γGlu-Docosanoyl])HKSSNNFGPILPPTKVGSETY-NH2; disulfide 2-7), in series [1], the Vd is 0.273 L/kg, the clearance came to 1.72 mL/min/kg and the half-life was 2.14 h.

Consider `CCCCCCCCCCCCCCCC(=O)N[C@@H](CCC(=O)NCCCC[C@H](NC(=O)[C@H](CCC(=O)O)NC(=O)[C@H](CC(N)=O)NC(=O)[C@H](C)NC(=O)[C@H](CC(C)C)NC(=O)[C@H](CCCNC(=N)N)NC(=O)[C@H](CCC(N)=O)NC(=O)[C@@H](NC(=O)[C@H](C)NC(=O)[C@@H]1CSSC[C@H](NC(=O)[C@@H](N)CO)C(=O)N[C@@H](CC(N)=O)C(=O)N[C@@H]([C@@H](C)O)C(=O)N[C@@H](CO)C(=O)N[C@@H]([C@@H](C)O)C(=O)N1)[C@@H](C)O)C(=O)N[C@@H](Cc1c[nH]cn1)C(=O)N[C@@H](CCCCN)C(=O)N[C@@H](CO)C(=O)N[C@@H](CO)C(=O)N[C@@H](CC(N)=O)C(=O)N[C@@H](CC(N)=O)C(=O)N[C@@H](Cc1ccccc1)C(=O)NCC(=O)N1CCC[C@H]1C(=O)N[C@H](C(=O)N[C@@H](CC(C)C)C(=O)N1CCC[C@H]1C(=O)N1CCC[C@H]1C(=O)N[C@H](C(=O)N[C@@H](CCCCN)C(=O)N[C@H](C(=O)NCC(=O)N[C@@H](CO)C(=O)N[C@@H](CCC(=O)O)C(=O)N[C@H](C(=O)N[C@@H](Cc1ccc(O)cc1)C(N)=O)[C@@H](C)O)C(C)C)[C@@H](C)O)[C@@H](C)CC)C(=O)O` [Compound A125] (H-SCNTSTCATQRLANEK([γGlu-Palmitoyl])HKSSNNFGPILPPTKVGSETY-NH2; disulfide 2-7), for which, in series [1], the Vd was determined as 0.211 L/kg, the clearance turned out to be 3.56 mL/min/kg and the half-life was 0.963 h.

As for `CC[C@H](C)[C@H](NC(=O)[C@H](C)NC(=O)[C@@H](NC(=O)[C@H](CCC(N)=O)NC(=O)[C@@H]1CCCN1C(=O)[C@H](Cc1ccccc1)NC(=O)[C@@H](NC(=O)[C@H](Cc1c[nH]cn1)NC(=O)[C@H](Cc1ccccc1)NC(=O)[C@H](CCCCN)NC(=O)[C@H](CC(N)=O)NC(=O)[C@H](Cc1ccccc1)NC(=O)[C@H](CC(=O)O)NC(=O)[C@H](CCC(N)=O)NC(=O)[C@@H](NC(=O)[C@H](Cc1ccc(O)cc1)NC(=O)[C@@H](NC(=O)CNC(=O)[C@H](CC(C)C)NC(=O)[C@H](CCSC)NC(=O)[C@@H]1CSSC[C@H](N)C(=O)NCC(=O)N[C@@H](CC(N)=O)C(=O)N[C@@H](CC(C)C)C(=O)N[C@@H](CO)C(=O)N[C@@H]([C@@H](C)O)C(=O)N1)[C@@H](C)O)[C@@H](C)O)[C@@H](C)O)[C@@H](C)O)C(=O)NCC(=O)N[C@H](C(=O)NCC(=O)N[C@@H](C)C(=O)N1CCC[C@H]1C(N)=O)C(C)C` [hCalcitonin, human calcitonin, reference compound], the “effect of HSA on potency at hCTR” value in series [2] is on record as “unaffected by the presence of HSA”.

By Vd is commonly meant the apparent volume that relates the amount in the body to the concentration in plasma or blood. The term clearance denotes the rate of elimination divided by the concentration. Higher therefore signals efficient removal. The term half-life denotes the time needed for the level to fall by half in the phase considered. Read a low half-life as rapid decline.
